Results published in ChEMBL document CHEMBL1145702, “(+)-Angchibangkine, a new type of bisbenzylisoquinoline alkaloid, and other dimers from Pachygone dasycarpa” (J Nat Prod, 1997).
In brackets after ≈: the same amount, converted by molar mass.

What was measured:
KB = assay: Cytotoxicity against human KB cells; format: functional, cell-based
Plasmodium falciparum [1] = assay: Antiplasmodial activity against chloroquine-resistant Plasmodium falciparum W2 as [3H]hypoxanthine uptake; format: functional, organism-based
Plasmodium falciparum [2] = assay: Antiplasmodial activity against chloroquine-sensitive Plasmodium falciparum D6 as [3H]hypoxanthine uptake; format: functional, organism-based

| SMILES | IC50 (KB) [µg/mL] | IC50 (Plasmodium falciparum [1]) [µg/mL] | IC50 (Plasmodium falciparum [2]) [µg/mL] |
| --- | --- | --- | --- |
| COc1ccc2cc1Oc1ccc(cc1)C[C@H]1c3c(cc(O)c4c3Oc3cc5c(cc3O4)CCN(C)[C@H]5C2)CCN1C | 3.4 (≈ 6.04 µM) | 0.063 (≈ 0.112 µM) | 0.0171 (≈ 0.0304 µM) |
| COc1ccc2cc1Oc1ccc(cc1)C[C@H]1c3cc4c(cc3CCN1C)Oc1c(OC)cc3c(c1O4)[C@H](C2)N(C)CC3 | 5.9 (≈ 10.2 µM) | 0.204 (≈ 0.354 µM) | 0.326 (≈ 0.565 µM) |
| COc1cc2c3c4c1Oc1cc5c(cc1O4)[C@H](Cc1ccc(cc1)Oc1cc(ccc1O)C[C@@H]3N(C)CC2)N(C)CC5 | 12 (≈ 21.3 µM) | 0.265 (≈ 0.471 µM) | 0.306 (≈ 0.544 µM) |
